pIC50: −log10 of the molar value.
Legend:
Type in all cases: cell-based
senescent NHDF cells = assay: Senescence assay, viability of senescent NHDF cells; details: Homo sapiens; chemotherapy-induced senescent NHDF cells, 24-72 hours with compound, viability by CellTiter-Glo or XTT; read-out: NHDF_SEN IC50 (Absolute IC50 average)
Protocol: (§1) Cells were maintained in DMEM media (high glucose, 4 mM L-glutamine, no sodium pyruvate) supplemented with 10% fetal bovine serum in a humidified incubator at 37° C. with 5% carbon dioxide. Senescence was induced via treatment with a sublethal concentration of chemotherapy (bleomycin, gemcitabine, doxorubicin, 5-fluorouridine), followed by a rest period without chemotherapy similarly to what is reported by others in the field (e.g., Aoshiba et al., 2003 Eur Respir J 22:436-443). Senescence was qualified by low EdU (5-ethynyl-2′-deoxyuridine) incorporation and high SA-β-Gal (senescence-associated beta-galactosidase) staining compared to proliferating untreated cells. Senescent cells were plated into 96-well plates at a density of 5-15,000 cells/well. The next day, compounds were added in duplicate across ten different concentrations spanning roughly four Log 10 units. Cells were incubated with the compounds for 24-72 hours, at which point viability is quantified using CellTiter-Glo (Promega) or XTT (R&D Systems). The viability for treated cells was determined relative to untreated control cells. The log of the compound concentration vs. normalized mean viability was a fit to a four parameters Hill function with variable slope. The bottom was constrained to be greater than zero. The X mean value for Y=50 interpolated to determine the absolute IC50. […]

senescent A549 cells = assay: Senescence assay, viability of senescent A549 cells; details: Homo sapiens; chemotherapy-induced senescent A549 cells, 24-72 hours with compound, viability by CellTiter-Glo or XTT; read-out: A549_SEN IC50 (Absolute IC50 average)
Protocol: as §1

senescent HEPG2 cells = assay: Senescence assay, viability of senescent HEPG2 cells; details: Homo sapiens; chemotherapy-induced senescent HEPG2 cells, 24-72 hours with compound, viability by CellTiter-Glo or XTT; read-out: HEPG2_SEN IC50 (Absolute IC50 average)
Protocol: as §1

senescent IMR90 cells = assay: Senescence assay, viability of senescent IMR90 cells; details: Homo sapiens, IMR-90; chemotherapy-induced senescent IMR90 cells, 24-72 hours with compound, viability by CellTiter-Glo or XTT; read-out: IMR90_SEN IC50 (Absolute IC50 average)
Protocol: as §1

pIC50 (senescent A549 cells)	pIC50 (senescent HEPG2 cells)	Structure (SMILES)	pIC50 (senescent NHDF cells)	pIC50 (senescent IMR90 cells)
–	–	C#CC(=O)[C@]1(O)CC[C@H]2[C@@H]3CCC4=CC(=O)CCC4=C3[C@@H](c3ccc(C4CC4)cc3)C[C@@]21C [Compound 2, (8S,11R,13S,14S,17S)-11-(4-cyclopropylphenyl)-17-hydroxy-13-methyl-17-propioloyl-1,2,6,7,8,11,12,13,14,15,16,17-dodecahydro-3H-cyclopenta[a]phenanthren-3-one]	5.00 to 6.00	–
5.00 to 6.00	6.00 to 7.00	C#CC(F)(F)[C@]1(O)CC[C@H]2[C@@H]3CCC4=CC(=O)CCC4=C3[C@@H](c3ccc(O)cc3)C[C@@]21C [Compound 1, (1S,3aS,3bS,10R,11aS)-1-(1,1-difluoroprop-2-yn-1-yl)-1-hydroxy-10-(4-hydroxyphenyl)-11a-methyl-2H,3H,3aH,3bH,4H,5H,8H,9H,10H,11H-cyclopenta[a]phenanthren-7-one]	6.00 to 7.00	6.00 to 7.00

— patent US20250296951A1, “GPX4 Inhibitors and Senolytic Compounds and Uses Thereof” (Rubedo Life Sciences, Inc., priority 2024, published 2025)
